Results published in article PMC9144521 (Viruses, 2022).
Where a name gives a salt, the structure may show the parent alone.

Columns and labels:
AdV3 = experiment: Anti-AdV activity assay (IFA of hexon), secondary screen, AdV3; type: cell-based, Human adenoviruses type 3; settings: for Selective Index AdV3: CC50/EC50, Vero cells; for EC50: Vero cells, 48 h, IFA of hexon, 0.02 to 5 μM
AdV5 = experiment: Anti-AdV activity assay (IFA of hexon), secondary screen, AdV5; type: cell-based, Human adenoviruses type 5; settings: for Selective Index AdV5: CC50/EC50, Vero cells; for EC50: Vero cells, 48 h, IFA of hexon, 0.02 to 5 μM
in vitro = settings: African green monkey

Compound	EC50 (AdV3) [nM]	EC50 (AdV5) [nM]	Selective Index AdV3 (AdV3)	Selective Index AdV5 (AdV5)	CC50 at 48 h (in vitro) [nM]	CC50 at 48 h (in vitro; Vero cells) [nM]	CC50 (Vero cells) [nM]
CO[C@H]1/C=C\C=C(/C)C(=O)NC2=CC(=O)C(NCCN(C)C)=C(C[C@@H](C)C[C@H](OC)[C@H](O)[C@@H](C)/C=C(\C)[C@@H]1OC(N)=O)C2=O [17-DMAG]	220	430	>23.20	>11.58	> 5000		
CNC(=O)CN1CCC(Oc2cc3c(Nc4cccc(Cl)c4F)ncnc3cc2OC)CC1 [AZD8931]	50	> 5000	>96.15		> 5000		
S=C(NCc1ccc2c(c1)OCO2)N1CCN(c2ncnc3c2oc2ccccc23)CC1 [Amuvatinib]	3970	1800	2.10	4.64		> 5000	
CO[C@H]1CC[C@H](N2C(=O)CNc3ncc(-c4ccc(C(C)(C)O)nc4)nc32)CC1 [CC-223]	1110	1380	>4.50	>3.62		> 5000	
COc1cc2ncnc(Nc3ccc(F)c(Cl)c3)c2cc1NC(=O)/C=C/CN1CCCCC1 [Dacomitinib]	770	1640	6.31	2.97		4880	
CCNC(=O)Nc1ccc(-c2nc3c(c(N4CCOC[C@@H]4C)n2)CCN(C2COC2)C3)cc1 [GDC-0349]	1380	2620	>3.63	>1.91		> 5000	
COC1=C2C[C@@H](C)C[C@H](OC)[C@H](O)[C@@H](C)/C=C(\C)[C@H](OC(N)=O)[C@@H](OC)/C=C\C=C(/C)C(=O)NC(=CC1=O)C2=O [Geldanamycin]	1480	> 5000	>3.38		> 5000		
O=C(c1ccc(/C=C/c2n[nH]c3ccccc23)cc1)N1CCNCC1 [KW-2449]	3660	1280	>1.37	>3.91	> 5000		
CO[C@@H](C)Cn1c(=O)n(C)c2cnc3ccc(-c4cncc(C(C)(C)O)c4)cc3c21 [LY3023414]	900	1310	>5.58	>3.83	> 5000		
COc1c(C)c2c(c(O)c1C/C=C(\C)CCC(=O)OCCN1CCOCC1)C(=O)OC2 [Mycophenolate Mofetil]	1840	190	>2.72	>25.83		> 5000	
CN1CCC(NC(=O)c2cc(-c3c(O)cc(O)cc3Oc3ccc([N+](=O)[O-])cc3)on2)CC1 [NMS-E973]	920	4940					
CN1CCN(c2ccc(Nc3ncc4cc(C#N)c(=O)n(C5CCCC5)c4n3)cc2)CC1 [ON123300]	2910	1620	>1.72	>3.08		> 5000	
COc1cccc2cc(-c3nc([C@H]4CC[C@H](C(=O)O)CC4)n4ncnc(N)c34)[nH]c12 [OSI-027]	1380	2400	>3.62	>2.08	> 5000		
CC(C)NCCCn1c(Sc2cc3c(cc2I)OCO3)nc2c(N)ncnc21 [PU-H71]	740	2200	>6.79	>2.27		> 5000	
Cn1c(Nc2ccc(C(F)(F)F)cc2)nc2cc(Oc3ccnc(-c4ncc(C(F)(F)F)[nH]4)c3)ccc21 [RAF265]	1280	> 5000	>3.91		> 5000		
O=C1c2ccc(Nc3ccc(F)cc3F)cc2CCc2ccc(OC[C@H](O)CO)cc21 [Skepinone-L]	180	2560	11.84	0.83	2140		
CNC(=O)c1cc(Oc2ccc(NC(=O)Nc3ccc(Cl)c(C(F)(F)F)c3)cc2)ccn1 [Sorafenib Tosylate]	1270	3870	4.67	1.53	> 5000		
COc1cccc(-c2ccc(NC(=O)C3=C(C(=O)O)CCC3)c(F)c2)c1 [Vidofludimus]	1630	940	>3.07	>5.35		> 5000	
AZD4547			8.78				

The remaining compounds from weak to strong by EC50 (AdV3), led by results:

EC50 (AdV3) [nM]	EC50 (AdV5) [nM]	Compound	Selective Index AdV3 (AdV3)	Selective Index AdV5 (AdV5)	CC50 at 48 h (in vitro) [nM]	CC50 at 48 h (in vitro; Vero cells) [nM]	CC50 (Vero cells) [nM]
640	600	CCCCOc1c(C(=O)c2c(F)cc(C)cc2F)c[nH]c2nncc1-2 [BMS-265246]	>7.84	>8.35		> 5000	
620	1230	Cn1c2ccccc2c2c3c(c4c5ccccc5n(CCC#N)c4c21)CNC3=O [Go6976]	6.39	3.22		3950	
540	2260	Cc1nc(Nc2[nH]nc3c2CN(C(=O)N[C@H](CN(C)C)c2ccccc2)C3(C)C)c2sccc2n1 [PF-3758309]	>9.29	>2.22		> 5000	
510	> 5000	C#Cc1cccc(Nc2ncnc3cc(OCCOC)c(OCCO)cc23)c1.Cl [DesMethyl Erlotinib]	>9.72				> 5000
470	2720	CCn1c(=O)c(-c2cc[nH]n2)cc2c(C)nc(N)nc21 [Voxtalisib]	4.83	0.83	2260		
440	1500	CNC(=O)c1cc(Oc2ccc(NC(=O)Nc3ccc(Cl)c(C(F)(F)F)c3)c(F)c2)ccn1 [Regorafenib]	9.30	2.72		4060	
350	> 5000	Cc1ccc(-n2nc(C(C)(C)C)cc2NC(=O)Nc2ccc(OCCN3CCOCC3)c3ccccc23)cc1 [Doramapimod]	>14.24		> 5000		
320	3600	N#CC1(c2ccc(NC(=O)c3cccnc3NCc3ccncc3)cc2)CCCC1 [Apatinib]	>15.41	>1.39	> 5000		
310	90	Nc1ccc(-c2ccc3ncc4ccc(=O)n(-c5cccc(C(F)(F)F)c5)c4c3c2)cn1 [Torin 2]					
230	1060	COc1cc(Nc2ncc(F)c(Nc3ccc4c(n3)N(COP(=O)(O)O)C(=O)C(C)(C)O4)n2)cc(OC)c1OC [R788]	6.65	1.48		1560	
190	400	CC1(C)CC(=O)c2c(C(F)(F)F)nn(-c3ccc(C(N)=O)c(N[C@H]4CC[C@H](OC(=O)CN)CC4)c3)c2C1 [PF-04929113]	>26.61	>12.46	> 5000		
180	230	CCNC(=O)c1noc(-c2cc(C(C)C)c(O)cc2O)c1-c1ccc(CN2CCOCC2)cc1 [AUY922]	>28.56	>22.11	> 5000		
170	330	CC1(C)CC(=O)c2c(C(F)(F)F)nn(-c3ccc(C(N)=O)c(N[C@H]4CC[C@H](O)CC4)c3)c2C1 [SNX-2112]	>28.87	>15.09		> 5000	
110	160	COc1ccc(-c2ccc3c(N4CCOC[C@@H]4C)nc(N4CCOC[C@@H]4C)nc3n2)cc1CO [AZD8055]	>44.72	>31.87	> 5000		
100	240	COc1c(C)cnc(Cn2cnc3c(Cl)nc(N)nc32)c1C [BIIB021]	>48.73	>21.2	> 5000		
100	520	O=C(/C=C\n1cnc(-c2cc(C(F)(F)F)cc(C(F)(F)F)c2)n1)NNc1cnccn1 [KPT-330]	15.45	3.04	1580		
90	650	NC(=O)CCCSc1nc(N)nc(-c2c(Cl)cc3c4c(cccc24)COC3)n1 [CH5138303]					
80	180	CC(C)c1cc(C(=O)N2Cc3ccc(CN4CCN(C)CC4)cc3C2)c(O)cc1O [AT13387]	>61.84	>27.13		> 5000	
80	270	Cc1c(CN2CCN(C(=O)[C@H](C)O)CC2)sc2c(N3CCOCC3)nc(-c3cnc(N)nc3)nc12 [GDC-0980]	36.44	10.96	3000		
50	50	CC(C)c1cc(-c2n[nH]c(=O)n2-c2ccc3c(ccn3C)c2)c(O)cc1O [STA-9090]	97.56	76.73		4440	
20	70	CNC(=O)c1cccc(-c2ccc3c(N4CCOC[C@@H]4C)nc(N4CCOC[C@@H]4C)nc3n2)c1 [AZD2014]	171.31	56.82	4050		
20	1580	CNC(=O)c1ccc(C)c(-n2c(C)cc(OCc3ccc(F)cc3F)c(Br)c2=O)c1 [PH-797804]	>250.00	>3.16	> 5000		
10	10	CC(C)n1nc(-c2ccc3oc(N)nc3c2)c2c(N)ncnc21 [INK 128]	161.78	61.27		850	
